For 17 compounds, IC50 results are on record in PubChem BioAssay AID2784 (Sanford-Burnham Center for Chemical Genomics, 2010).

Active and inactive are the calls of the source. The rule behind the calls is not given here.

What is called IC50 is the concentration that gives 50% inhibition.

This assay concerns the target Apelin receptor (Homo sapiens) (UniProt P35414). Kind of assay: APJ antagonist potency in beta-arrestin recruitment, dose response, cell-based, luminescence, uHTS hits (AID 2784). To be noted: antagonist mode.

Chain of Apelin receptor (Homo sapiens) (P35414 whole entry, looked up): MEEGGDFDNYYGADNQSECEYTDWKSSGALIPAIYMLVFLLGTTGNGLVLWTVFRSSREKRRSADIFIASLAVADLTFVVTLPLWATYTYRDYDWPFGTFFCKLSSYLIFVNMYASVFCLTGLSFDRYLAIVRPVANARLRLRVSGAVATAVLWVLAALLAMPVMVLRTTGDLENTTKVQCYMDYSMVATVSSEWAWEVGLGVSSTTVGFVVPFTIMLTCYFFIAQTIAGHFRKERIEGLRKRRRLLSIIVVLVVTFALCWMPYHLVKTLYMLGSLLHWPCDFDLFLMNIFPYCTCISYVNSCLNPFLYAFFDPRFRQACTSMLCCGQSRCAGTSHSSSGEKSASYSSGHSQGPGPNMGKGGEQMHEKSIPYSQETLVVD

Consider `COc1ccc(NS(=O)(=O)c2cc([N+](=O)[O-])ccc2N/N=C\c2c(C)[nH]c3ccccc23)cc1`, for which the IC50 is > 40 µM (inactive).

As to `O=C(O)c1ccccc1N=Nc1c(O)[nH]c2ccc([N+](=O)[O-])cc12`, the IC50 was > 40 µM (inactive).

For the compound `CC1=Nc2ccccc2/C1=C/c1sc(=N)n(-c2nccs2)c1O`, the IC50 is > 40 µM (inactive). As for `COc1ccc2c(c1)C(=O)[C@H](O)[C@@H](c1ccc(OC)c(Br)c1)O2`, the IC50 was 3.07 µM. For the compound `O=C(CCCC(=O)Nc1cccc(Br)c1)N/N=C/c1cc([N+](=O)[O-])ccc1O`, the IC50 result is “inactive”. In the case of `CCOCCOC(=O)C1=C(C)NC2=C(C(=O)CC(c3cccs3)C2)C1c1ccsc1` (configuration not stated), the IC50 was > 40 µM (inactive). The entry for `CN(/N=C/c1cc([N+](=O)[O-])ccc1O)c1ccccc1` is “inactive”; for `CCOC(=O)C1=C(C)NC2=C(C(=O)CC(c3cccs3)C2)C1c1cccs1` (configuration not stated) it is “inactive”. With `CCOC(=O)C1=NNC(C(=O)c2ccc(Cl)cc2)C1c1ccccc1` (configuration not stated), the IC50 was 10.6 µM. As to `Cc1ncc(CO)c(/C=N/Nc2ccc(C(F)(F)F)cn2)c1O`, the half-maximal inhibitory concentration (IC50) was 9.42 µM. The same measure for `O=[N+]([O-])c1ccc(O)c(/C=N/Nc2ccc(Cl)nn2)c1`: 4.18 µM; for `CC1=NN(C(N)=S)C(=O)C1N=Nc1ccc([N+](=O)[O-])cc1` (configuration not stated): > 40 µM (inactive); for `Cc1ccc(NS(=O)(=O)c2cc([N+](=O)[O-])ccc2N/N=C/c2sc(N3CCOCC3)nc2-c2ccccc2)c(C)c1`: > 40 µM (inactive). With `COC(=O)C1NN=C(C(=O)c2ccc(Cl)cc2)C1c1ccc(OC)cc1` (configuration not stated), the IC50 was 7.27 µM.

Regarding `COc1ccc2c(c1)C(=O)[C@@H](O)[C@H](c1ccc(OC)c(Br)c1)O2`, the IC50 was > 40 µM (inactive).

As to `Cn1c(O)c(N=Nc2nc(-c3ccccc3)cs2)c2ccccc21`, the IC50 was > 40 µM (inactive). For the compound `CC1=NN(c2ccc(C)cc2)C(=O)/C1=C/c1ccc(-c2cc([N+](=O)[O-])ccc2O)o1`, the IC50 is > 40 µM (inactive).
